Test results reported in patent US7196110B2, “N-substituted tricyclic 3-aminopyrazoles as inhibitors for the treatment of cell proliferative disorders” (Janssen Phamaceutica N.V., priority 2002, dated 2007).
“And” between values parts separate entries of the source, which are not always exact repeats. Equal entries are not always repeated.

Experiments:
[1] = biological target: T1, PDGF-receptor beta enzyme comprising the tyrosine kinase domain (Homo sapiens, UniProt P09619); assay: Inhibition of PDGF-receptor kinase activity (cell-free, PLC1 peptide, 33P Flashplate); assay type: biochemical; details: PDGF-R kinase activity; for inhibition at 10 µM: compound at 10 uM, read-out: Percent Inhibition @ 10 uM; for IC50: read-out: IC50
T1 construct: from amino acid 545 to 1106 of GenBank Access NO: AAA36427
How it was run: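 Recombinant kinase domain (aa 545–1106) phosphorylated a biotinylated PLC1 peptide with 5 μM ATP plus 33P-γ-ATP, in Tris pH 8, MgCl2, Na3VO4 and 1 mM DTT, for 60 min at 30 °C. Retained 33P was counted after washing. IC50 is the concentration halving activity versus no-inhibitor reactions.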

LoVo (colon) = assay: Anti-cell proliferation in tumor cells (14C-thymidine incorporation), LoVo; assay type: cell-based; details: Homo sapiens, read-out: IC50 on cell proliferation, LoVo
Protocol: (§1) The effect of compounds of the invention on cell proliferation in various tumor cells was tested based on incorporation of ^14C-thymidine into DNA of cells.
(§2) Similar to those described above in 3a, except that different cells, cell growth medium, and growth supplements were used. Human tumor cell lines derived from various human tissue origins (LoVo from colon, H460 from lung, T47D from breast, PC3 from prostate, A375 from melanoma, AsPC1 from pancreas) were obtained from the American Type Culture Collection (ATCC) and cultured under specified conditions required for each cell type, as provided by ATCC. Complete medium was obtained from Cellgro: Iscove's medium with 10% Fetal Bovine Serium (FBS) (Mediatech, Inc., Herndon, Va. 20171, Cat. No. 10-016-CV).
(§3) Tumor cells were seeded at approx. 3000–8000 cells per well in a volume of 100 μl of complete medium. Cells were grown for 24 hours in complete medium, and 1 μl of test compound was serially diluted in 100% DMSO and added to each well. For maximum growth control wells, only 1 μl of 100% DMSO was added. After 24 hours incubation, 20 μl of ^14C-thymidine master mix was added to each well and the ^14C-thymidine master mix was pepared according to the following regimen:
(§4) Cells were incubated for an additional 24 hours at 37° C. in medium containing test compound and ^14C-thymidine. Then, the reaction mixture was discarded and the plate was washed 2 times each with 200 μl PBS. Subsequently, each well on the plate was filled with 200 μl of PBS. The top of the plate was sealed with transparent plate sealer and white plate backing sealers were applied to the bottom of plates. The retained ^14C inside each well was measured using a Packard TopCount.
(§5) In order to test the potency of inhibition of the present compound, IC50 of an individual compound on the inhibition of tumor cell line proliferation was measured using the above procedure. As used herein, said IC50 refers to the concentration of the test compound at which the amount of tumor cell proliferation is reduced by one-half as compared to the maximum growth control wells without the compound.

A375 (melanoma) = assay: Anti-cell proliferation in tumor cells (14C-thymidine incorporation), A375; assay type: cell-based; details: Homo sapiens, A-375; read-out: IC50 on cell proliferation, A375
Protocol: as §1, §2, §3, §4, §5

c-Abl kinase = c-Abl kinase (Abelson murine leukemia virus, UniProt P00521); assay: Inhibition of c-Abl kinase activity (cell-free, Abl peptide substrate, 33P Flashplate); assay type: biochemical; details: IC50 for the c-Abl kinase activity
H460 (lung) = assay: Anti-cell proliferation in tumor cells (14C-thymidine incorporation), H460; assay type: cell-based; details: Homo sapiens, NCI-H460; read-out: IC50 on cell proliferation, H460
Protocol: as §1, §2, §3, §4, §5

T47D (breast) = assay: Anti-cell proliferation in tumor cells (14C-thymidine incorporation), T47D; assay type: cell-based; details: Homo sapiens, read-out: IC50 on cell proliferation, T47D
Protocol: as §1, §2, §3, §4, §5

PC3 (prostate) = assay: Anti-cell proliferation in tumor cells (14C-thymidine incorporation), PC3; assay type: cell-based; details: Homo sapiens, PC-3; read-out: IC50 on cell proliferation, PC3
Protocol: as §1, §2, §3, §4, §5

AsPC1 (pancreas) = assay: Anti-cell proliferation in tumor cells (14C-thymidine incorporation), AsPC1; assay type: cell-based; details: Homo sapiens, ASPC1; read-out: IC50 on cell proliferation, AsPC1
Protocol: as §1, §2, §3, §4, §5

T1 sequence (P09619 545-1106): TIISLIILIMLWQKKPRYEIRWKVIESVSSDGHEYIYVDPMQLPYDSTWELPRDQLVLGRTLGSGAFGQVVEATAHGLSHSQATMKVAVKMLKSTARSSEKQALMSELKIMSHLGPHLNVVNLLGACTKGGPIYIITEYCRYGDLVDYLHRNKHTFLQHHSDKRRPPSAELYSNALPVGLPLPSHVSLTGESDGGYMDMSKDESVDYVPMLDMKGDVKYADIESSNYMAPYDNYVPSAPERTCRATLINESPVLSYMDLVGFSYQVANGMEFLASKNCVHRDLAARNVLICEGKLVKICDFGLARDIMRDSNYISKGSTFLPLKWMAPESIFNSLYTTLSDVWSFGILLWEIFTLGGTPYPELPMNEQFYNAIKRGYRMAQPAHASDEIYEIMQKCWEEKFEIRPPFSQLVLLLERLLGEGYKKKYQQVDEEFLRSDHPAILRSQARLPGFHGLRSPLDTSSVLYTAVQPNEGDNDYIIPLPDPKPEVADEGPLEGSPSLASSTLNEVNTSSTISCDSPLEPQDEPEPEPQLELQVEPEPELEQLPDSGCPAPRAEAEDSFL
Sequence of c-Abl kinase (P00521 115-385): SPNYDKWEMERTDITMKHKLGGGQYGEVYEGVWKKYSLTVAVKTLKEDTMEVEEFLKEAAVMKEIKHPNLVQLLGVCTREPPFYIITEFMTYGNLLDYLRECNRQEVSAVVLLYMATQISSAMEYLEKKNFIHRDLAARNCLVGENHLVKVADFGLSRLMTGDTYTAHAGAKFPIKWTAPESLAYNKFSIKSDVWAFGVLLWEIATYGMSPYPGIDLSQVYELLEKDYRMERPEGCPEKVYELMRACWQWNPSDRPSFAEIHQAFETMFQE

Row | Structure (SMILES) | inhibition at 10 µM [1] [%] | IC50 [1] [µM] | IC50 (LoVo (colon)) [µM] | IC50 (A375 (melanoma)) [µM] | IC50 (c-Abl kinase) | IC50 (H460 (lung)) [µM] | IC50 (T47D (breast)) [µM] | IC50 (PC3 (prostate)) [µM] | IC50 (AsPC1 (pancreas)) [µM]
1 | COc1cc2c(cc1OC)-c1c(c(Nc3cccc(Br)c3)nn1C)C2 [Compound 91, (3-Bromo-phenyl)-(6,7-dimethoxy-1-methyl-1,4-dihydro-indeno[1,2-c]pyrazol-3-yl)-amine] | 76 | 2.97 | 0.071 | 0.004 |  |  |  |  | 
2 | CCOc1cccc(Nc2[nH]nc3c2Cc2cc(OCC)c(OCCCO)cc2-3)c1 [Compound 388, 3-[6-Ethoxy-3-(3-ethoxy-phenylamino)-2,4-dihydro-indeno[1,2-c]pyrazol-7-yloxy]-propan-1-ol] | 96 | 0.0367 | 0.018 | 0.002 | 0.046 µM | 0.006 | 0.003 | 0.004 | 0.155
3 | COc1cc2c(cc1OC)-c1n[nH]c(Nc3cccc(Cl)c3)c1C2 [Compound 4, (3-Chloro-phenyl)-(6,7-dimethoxy-2,4-dihydro-indeno[1,2-c]pyrazol-3-yl)-amine] | 90 |  |  |  |  |  | 0.03 |  | 
4 | CCC1c2cc(OC)c(OC)cc2-c2n[nH]c(Nc3cccc(Br)c3)c21 (stereo not drawn) [Compound 420, (3-Bromo-phenyl)-(4-ethyl-6,7-dimethoxy-2,4-dihydro-indeno[1,2-c]pyrazol-3-yl)-amine] | 100 | 0.0524 | 3.8 | 0.214 | 0.335 µM | 4.1 | 0.822 | 0.276 | 4.3
5 | COc1cc2c(cc1OCC(O)CN1CCCC1)Cc1c-2n[nH]c1Nc1cccc(F)c1 (stereo not drawn) [Compound 269, 1-[3-(3-Fluoro-phenylamino)-7-methoxy-2,4-dihydro-indeno[1,2-c]pyrazol-6-yloxy]-3-pyrrolidin-1-yl-propan-2-ol] | 94 | 0.000591 |  |  | 0.101 µM |  |  |  | 
6 | Fc1ccc(F)c(Nc2[nH]nc3c2Cc2ccccc2-3)c1 [Compound 339, (2,5-Difluoro-phenyl)-(2,4-dihydro-indeno[1,2-c]pyrazol-3-yl)-amine] | 100 | 0.117 |  |  | 2.18 µM |  |  |  | 
7 | COc1cc2c(cc1OCCCN1CCOCC1)Cc1c-2n[nH]c1Nc1cccnc1 [Compound 129, [7-Methoxy-6-(3-morpholin-4-yl-propoxy)-2,4-dihydro-indeno[1,2-c]pyrazol-3-yl]-pyridin-3-yl-amine] | 53.5 | 0.0367 |  |  | 10.8 µM and 2.36 µM |  |  |  | 
8 | COc1cc2c(cc1OCC(O)CO)Cc1c-2n[nH]c1Nc1cccc(F)c1 (stereo not drawn) [Compound 262, 3-[3-(3-Fluoro-phenylamino)-7-methoxy-2,4-dihydro-indeno[1,2-c]pyrazol-6-yloxy]-propane-1,2-diol] | 90 | 0.001 |  |  | 0.027 µM |  |  |  | 
9 | Fc1ccc(Nc2[nH]nc3c2Cc2cc(F)ccc2-3)cc1 [Compound 201, (6-Fluoro-2,4-dihydro-indeno[1,2-c]pyrazol-3-yl)-(4-fluoro-phenyl)-amine] | 96 | 0.009 |  |  | 0.217 µM |  |  |  | 
10 | COc1cc2c(cc1OCCCO)Cc1c-2n[nH]c1Nc1ccc(F)c(Cl)c1 [Compound 267, 3-[3-(3-Choloro-4-fluoro-phenylamino)-7-methoxy-2,4-dihydro-indeno[1,2-c]pyrazol-6-yloxy]-propan-1-ol] | 93.5 | 0.0106 |  |  | 0.326 µM |  |  |  | 
11 | COc1cc2c(cc1OCC(O)CN1CCCC1)Cc1c-2n[nH]c1Nc1ccc(F)c(Cl)c1 (stereo not drawn) [Compound 280, 1-[3-(3-Chloro-4-fluoro-phenylamino)-7-methoxy-2,4-dihydro-indeno[1,2-c]pyrazol-6-yloxy]-3-pyrrolidin-1-yl-propan-2-ol] | 102 | 0.00172 |  |  | 0.363 µM |  |  |  | 
